Test results from patent publication US12502382B2, “EPAC1 inhibitors for the treatment of idiopathic pulmonary fibrosis” (INSERM (Institut National de la Santé et de la Recherche …, priority 2019, dated 2025).

Key:
[1] = tested on: fibrosis markers (COL1, COL3, CTGF, TGFβ) in NHLF cells; assay: qPCR of TGF-β1-induced fibrosis marker mRNA in NHLF; assay type: cell-based, human; conditions: TGF-β1 2 ng/mL 48 hrs, inhibitor 20 μM 48 hrs
Experimental: (§1) Cell Culture. Normal human lung fibroblast (NHLF) and lung fibroblast from IPF patients were purchased from Lonza, Inc. (Allendale, NJ) and cultured as recommended in FGM-2 medium supplemented with 5% fetal bovine serum (FBS) in 5% CO2 at 37° C. and passaged at the confluence. All the cell lines were tested by the manufacturers and negative for HIV-1, HBV, HCV, mycoplasma, bacteria, yeast, and fungi.
(§2) Pharmacological treatment. Cells were seeded at 250,000 cells/well in 6-well plates and maintained in a 37° C. incubator with 5% CO2 for 24 hrs prior to use. Cells were treated with TGF-β1 (2 ng/mL; 48 hrs) alone or in combination with either Epac1 inhibitor CE3F4 (20 μM; 48 hrs) or AM-001 (20 μM; 48 hrs).
(§3) Total RNA was isolated using TRIzol™ (Invitrogen) and purified using RNeasy mini columns (Qiagen), according to the manufacturer's instructions. The cDNA synthesis kit (Applied Biosystems, Foster City, CA) was used to synthesized cDNA, as described by the manufacturer. Quantitative RT-PCR was performed using the PerfeCTa SYBR™ Green FastMix kit (Quantabio, Beverly, MA) and specific primers against the indicated genes, according to the manufacturer's instructions. Fold changes in gene expression were determined using the relative comparison method with normalization to GAPDH as an internal loading control.

IPF fibroblasts [2] = assay: Immunoblot of phospho-SMAD2/3, phospho-STAT3, phospho-AKT in IPF fibroblasts; assay type: cell-based, human; conditions: IPF fibroblast
Experimental: as §1
SDS-PAGE and Immunoblot Analysis. Protein lysates were prepared using RIPA lysis buffer (Boston BioProducts) containing a Protease/Phosphatase Inhibitor Cocktail (Pierce). After centrifugation for 20 min at 15000×g, the protein concentrations were determined using a bicinchoninic acid (BCA) assay (Sigma-Aldrich). The proteins were then separated by SDS-polyacrylamide gel electrophoresis and transferred to polyvinylidene difluoride membranes. The membranes were blocked with 5% Skim milk and hybridized overnight at 4° C. with the following primary antibodies: Epac1 (Cell signaling), phospho-SMAD2/3 (Cell signaling), phospho-STAT3 (Cell signaling), phospho-AKT (Cell signaling), Total AKT (Cell signaling), and GAPDH (Thermofisher). The membranes were then incubated with the appropriate secondary HRP-conjugated antibody (Cell signaling) for 1 hour, and the blots were developed using the ECL System (Thermofisher).

[3] = tested on: myocardial I/R injury and chronic β-AR activation; conditions: Laudette et al. 2019; cited from earlier work
IPF fibroblasts [4] = assay: BrdU proliferation assay in IPF fibroblasts; assay type: cell-based, human; conditions: basal condition, preliminary data
Experimental: as §1
(§4) The proliferation of NHLFs was measured by 5-bromo-2′-deoxyuridine (BrdU) incorporation using the Cell Proliferation ELISA, BrdU (colorimetric) assay (Roche, Indianapolis, IN), according to the manufacturer's instructions.

Epac2 = Epac2 (Homo sapiens, UniProt Q8WZA2); conditions: Laudette et al. 2019; cited from earlier work
IPF fibroblasts [5] = assay: qPCR of IL-6, α-SMA and FOXO3 mRNA in IPF fibroblasts; assay type: cell-based, human; conditions: 20 μM for 48 h
Experimental: as §1, §3

[6] = tested on: Normal human lung fibroblast (NHLF); assay: BrdU proliferation assay in normal human lung fibroblasts; assay type: cell-based; conditions: TGFβ treatment and serum stimulation (0.1% or 5% FBS), 48 hours, inhibitor 20 μM
Experimental: as §1, §2, §4

Epac1 = target: T1, Epac1 (Homo sapiens, UniProt O95398); conditions: Laudette et al. 2019; cited from earlier work
T1 sequence (O95398 1-923): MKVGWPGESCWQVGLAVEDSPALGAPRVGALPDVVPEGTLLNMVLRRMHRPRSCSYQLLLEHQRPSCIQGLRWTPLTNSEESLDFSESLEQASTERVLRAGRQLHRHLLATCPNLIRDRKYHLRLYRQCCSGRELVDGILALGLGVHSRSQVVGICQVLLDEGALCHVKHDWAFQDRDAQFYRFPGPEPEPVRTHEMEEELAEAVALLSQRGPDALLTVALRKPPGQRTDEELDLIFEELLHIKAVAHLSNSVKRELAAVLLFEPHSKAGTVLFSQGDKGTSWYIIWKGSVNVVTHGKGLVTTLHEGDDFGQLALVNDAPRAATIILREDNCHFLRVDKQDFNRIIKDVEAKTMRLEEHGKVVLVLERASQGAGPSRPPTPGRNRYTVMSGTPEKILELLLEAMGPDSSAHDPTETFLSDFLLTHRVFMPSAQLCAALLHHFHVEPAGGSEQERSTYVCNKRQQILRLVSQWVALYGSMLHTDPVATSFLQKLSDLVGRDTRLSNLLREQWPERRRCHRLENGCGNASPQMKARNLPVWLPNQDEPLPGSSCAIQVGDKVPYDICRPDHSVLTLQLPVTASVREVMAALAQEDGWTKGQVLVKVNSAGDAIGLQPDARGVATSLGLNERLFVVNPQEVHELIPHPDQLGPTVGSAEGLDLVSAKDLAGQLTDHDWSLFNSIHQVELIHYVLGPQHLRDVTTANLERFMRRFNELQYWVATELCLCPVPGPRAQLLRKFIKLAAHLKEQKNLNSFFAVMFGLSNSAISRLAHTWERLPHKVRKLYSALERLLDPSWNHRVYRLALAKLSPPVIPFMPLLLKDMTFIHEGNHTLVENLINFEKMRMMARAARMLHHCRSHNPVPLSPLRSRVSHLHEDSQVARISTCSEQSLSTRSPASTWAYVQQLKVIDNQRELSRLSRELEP

[7] = tested on: mouse model of bleomycin-induced pulmonary fibrosis; assay: Histology (Masson's trichrome, H&E, WGA) in bleomycin-induced pulmonary fibrosis mouse model; assay type: in vivo
Experimental: Intratracheal bleomycin animal model. […] Animals were anesthetized by IP injection of xylazine/ketamine and were secured to a tray in the supine position. After intubation, the board was tilted at 45 degrees, and the IA-1C Microsprayer tip (PennCentury, Wyndmoor, PA) was inserted through the lumen of the angiocath. Animals were subjected to a single intratracheal injection of BLM (50 μL; 4 U/Kg) for 28 days. The pharmacological inhibitor of Epac1, AM-001, was injected intraperitoneally every alternate day (10 mg/kg) for 2 weeks.
Hematoxylin & Eosin and Masson's trichrome staining. Lung tissue was harvested, inflated with PBS/OCT (50:50), and fixed (frozen in −80° C.) in OCT. Sections were cut to 8 μm and adhered to colorfrost glass slides (ThermoFisher). Lung tissue sections were stained with hematoxylin and eosin (H&E) and Masson's trichrome (Sigma-Aldrich) and visualized using light microscopy. The medial thickness and collagen deposition were then quantified using ImageJ software.
RV sections were fixed in 1% paraformaldehyde (PFA) and stained using fluorescence-tagged wheat germ agglutinin (WGA) (Invitrogen) overnight at 4° C. and imaged with on Zeiss Observer Z.1 microscope (Carl Zeiss) at ×160 magnification. The outlines of cardiac myocytes were traced, and the cardiomyocyte area was calculated using ImageJ software.

protein kinase A (PKA) = conditions: Laudette et al. 2019; cited from earlier work
[8] = tested on: mouse model of bleomycin-induced pulmonary fibrosis; assay: qPCR of marker mRNA in lung and RV tissues of bleomycin-challenged mice; assay type: in vivo
Experimental: Intratracheal bleomycin animal model. All of the animal experiments and handling were performed in accordance with NIH Guide for the Care and Use of Laboratory Animals. Animals were anesthetized by IP injection of xylazine/ketamine and were secured to a tray in the supine position. After intubation, the board was tilted at 45 degrees, and the IA-1C Microsprayer tip (PennCentury, Wyndmoor, PA) was inserted through the lumen of the angiocath. Animals were subjected to a single intratracheal injection of BLM (50 μL; 4 U/Kg) for 28 days. The pharmacological inhibitor of Epac1, AM-001, was injected intraperitoneally every alternate day (10 mg/kg) for 2 weeks.
as §3
Using a therapeutic strategy, mice were randomly allocated to a sham control-treated group that received intratracheal saline and PF group that received a single intratracheal aerosolization of BLM (4 U/kg). After 2 weeks, the BLM-challenged group was randomly assigned to receive either a vehicle or the Epac1 inhibitor AM-001 for two weeks (FIG. 4A). Vehicle or AM-001 was injected intraperitoneally every alternate day (10 mg/kg) for 2 weeks. […] To further investigate the potential therapeutic effect of Epac1 inhibition in PF, the interstitial fibrosis level and the vascular remodeling were next evaluated by histological analysis after 2 weeks of treatment. […] The inventors also measured by RT-qPCR the expression of several markers of fibrosis in the lung samples.

[9] = tested on: mouse model of bleomycin-induced pulmonary fibrosis; assay: Hemodynamics and RV hypertrophy in bleomycin-induced pulmonary fibrosis mouse model; assay type: in vivo; conditions: 10 mg/kg i.p. every alternate day for 2 weeks
Experimental: Intratracheal bleomycin animal model. […] Animals were anesthetized by IP injection of xylazine/ketamine and were secured to a tray in the supine position. After intubation, the board was tilted at 45 degrees, and the IA-1C Microsprayer tip (PennCentury, Wyndmoor, PA) was inserted through the lumen of the angiocath. Animals were subjected to a single intratracheal injection of BLM (50 μL; 4 U/Kg) for 28 days.
Heart hemodynamic studies. The mice were anesthetized with (2-4%) isoflurane, intubated via tracheotomy, and mechanically ventilated with 1-2% isoflurane and oxygen (tidal volume, 6 mL/kg; respiratory rate, 100 breaths per minute). The thoracic cavity was opened, and the organs were accessed through a sternotomy. Once the pericardium was opened, and the heart was fully accessible, an ultrasonic flow probe (flow probe 2.5S176; Transonic Systems Inc., Ithaca, NY) was inserted into the RV to collect the right ventricular systolic pressure (RVSP). Hemodynamic data were recorded using a Scisense PV Control Unit (Scisense, Ontario, Canada).
Right Ventricular Weight Measurement. After the hemodynamic data were collected, the mice were harvested to collect the heart and lungs. […] The Fulton Index was calculated by the weight ratio of the RV weight to the LV plus septum weight (RV weight/LV+Septum weight) to specifically illustrate the RV hypertrophy. […]

[10] = prevents its use for in vivo applications; cited from earlier work
[11] = BLM-challenged mice, 10 mg/kg i.p. every alternate day for 2 weeks
[12] = BLM+AM-001 vs BLM+vehicle, WT mice

Sequence of Epac2 (Q8WZA2 whole entry, species assumed): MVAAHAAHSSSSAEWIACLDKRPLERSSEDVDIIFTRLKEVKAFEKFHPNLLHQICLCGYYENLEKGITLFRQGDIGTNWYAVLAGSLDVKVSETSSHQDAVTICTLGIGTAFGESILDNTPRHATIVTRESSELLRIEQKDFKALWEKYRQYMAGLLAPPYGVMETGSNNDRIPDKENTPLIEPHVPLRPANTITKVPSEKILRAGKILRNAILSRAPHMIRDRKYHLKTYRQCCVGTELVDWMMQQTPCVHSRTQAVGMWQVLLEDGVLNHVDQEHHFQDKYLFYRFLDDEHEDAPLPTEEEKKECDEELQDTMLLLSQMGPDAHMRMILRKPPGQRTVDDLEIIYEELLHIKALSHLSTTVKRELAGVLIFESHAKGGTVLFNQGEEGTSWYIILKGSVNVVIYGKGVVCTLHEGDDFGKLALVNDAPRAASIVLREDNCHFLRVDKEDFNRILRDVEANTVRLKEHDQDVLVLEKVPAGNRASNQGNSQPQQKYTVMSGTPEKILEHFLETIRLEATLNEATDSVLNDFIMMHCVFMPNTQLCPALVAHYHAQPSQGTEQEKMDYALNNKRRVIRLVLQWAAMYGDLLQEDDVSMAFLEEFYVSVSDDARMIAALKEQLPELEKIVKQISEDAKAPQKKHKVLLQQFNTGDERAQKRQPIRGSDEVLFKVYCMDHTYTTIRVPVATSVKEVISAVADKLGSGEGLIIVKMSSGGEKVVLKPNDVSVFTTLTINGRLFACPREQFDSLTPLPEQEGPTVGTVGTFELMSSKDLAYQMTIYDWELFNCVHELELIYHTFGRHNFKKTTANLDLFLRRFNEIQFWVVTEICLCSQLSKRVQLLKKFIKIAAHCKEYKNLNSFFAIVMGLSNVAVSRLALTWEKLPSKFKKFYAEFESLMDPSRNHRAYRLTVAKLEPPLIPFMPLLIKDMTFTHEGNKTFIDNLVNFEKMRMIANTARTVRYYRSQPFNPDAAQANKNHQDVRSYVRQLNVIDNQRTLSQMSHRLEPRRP

## Nc1c(C(=O)Nc2ccc(F)cc2)sc2nc(-c3cccs3)cc(-c3ccccc3)c12 [AM-001, 3-amino-N-(4-fluorophenyl)-4-phenyl-6-(thiophen-2-yl)thieno[2,3-b]pyridine-2-carboxamide]
[1]
  mRNA expression of fibrosis markers (COL1, COL3, CTGF, TGFβ) induced by TGFβ: impaired the upregulation
IPF fibroblasts [2]
  phosphorylation of AKT: decreased
  phosphorylation of SMAD2/3: decreased
  phosphorylation of STAT3: decreased
[3]
  cardioprotection against myocardial I/R injury and detrimental effects of chronic β-AR activation: cardioprotective properties
IPF fibroblasts [4]
  IPF fibroblasts proliferation (BrdU): decrease
Epac2
  antagonist effect on Epac2: no antagonist effect
IPF fibroblasts [5]
  FOXO3 mRNA expression: restored
  IL-6 mRNA expression: attenuates
  α-SMA mRNA expression: attenuates
[6]
  proliferation of NHLFs (BrdU): inhibited
Epac1
  inhibitory activity toward Epac1: selective inhibitory activity
[7]; BLM mice, vs vehicle-treated BLM mice
  pulmonary vascular remodeling (medial thickness of distal pulmonary arteries): markedly diminished
[7]; [11]
  cardiomyocyte size in RV (WGA staining): reduction
[7]; BLM-challenged mice, 10 mg/kg i.p. every alternate day for 2 weeks, vs vehicle
  interstitial and perivascular fibrosis (Masson's trichrome): significantly decreased
Protein kinase A (PKA)
  antagonist effect on protein kinase A (PKA) activity: no antagonist effect
[8]; [12]
  FGFR1 mRNA level: significantly decreasing
  TNC mRNA level: trend decrease
[8]; BLM-challenged mice, RV tissues
  upregulation of fibrosis and hypertrophic gene markers (ANP, BNP, β-MHC) in RV: compromised
[8]; [11]
  COLI mRNA level in lung samples: markedly reduced
  COLIII mRNA level in lung samples: markedly reduced
  CTGF mRNA level in lung samples: markedly reduced
  TGFβ mRNA level in lung samples: markedly reduced
[9]; BLM 4 U/kg intratracheal, vs control group
  right ventricular systolic pressure (RVSP): reduction
[9]; BLM-challenged mice
  RV hypertrophy (Fulton Index): significantly decreased

## CC1CCc2c(cc(Br)c(F)c2Br)N1C=O (stereo not shown) [CE3F4]
[1]
  mRNA expression of fibrosis markers (COL1, COL3, CTGF, TGFβ) induced by TGFβ: impaired the induction
[6]
  proliferation of NHLFs (BrdU): significantly decreased
[10]
  biodisponibility: low
